Structures can show the parent of a compound that is named as a salt. Where two headings read alike, the source gives them in different places.
Legend:
[1] = molecular target: T1, Human NPY5 receptor (Homo sapiens, UniProt Q15761); assay: Human NPY5 receptor binding assay ([125I]PYY, membrane protein); settings: read-out: hNPY5 IC50
T1 sequence (Q15761 1-445): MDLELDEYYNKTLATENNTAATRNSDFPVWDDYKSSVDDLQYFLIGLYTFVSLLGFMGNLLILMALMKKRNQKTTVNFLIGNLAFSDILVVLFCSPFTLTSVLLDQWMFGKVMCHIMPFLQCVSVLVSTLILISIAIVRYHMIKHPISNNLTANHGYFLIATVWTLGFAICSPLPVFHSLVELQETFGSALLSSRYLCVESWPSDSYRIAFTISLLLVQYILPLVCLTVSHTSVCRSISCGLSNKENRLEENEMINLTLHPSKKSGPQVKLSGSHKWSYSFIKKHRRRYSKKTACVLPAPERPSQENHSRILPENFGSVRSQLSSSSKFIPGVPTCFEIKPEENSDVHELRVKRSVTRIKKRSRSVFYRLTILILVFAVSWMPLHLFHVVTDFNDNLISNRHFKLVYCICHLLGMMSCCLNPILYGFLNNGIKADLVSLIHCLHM
Summary of the method: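 First, membrane protein, drug dilution and 75-100 pM [125I]PYY were combined in pH 7.4 Tris saline buffer containing divalent cations and 0.1% BSA. Next, samples were mixed 2 hours at room temperature. Finally, samples were filtered, washed ice-cold and counted; 1 μM PYY gave nonspecific binding.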

[2] = molecular target: human Y4/PP1 receptor (Homo sapiens, UniProt P50391); assay: Human Y4/PP1 receptor binding assay ([125I]human PP, membrane protein); settings: [125I]human PP, membrane protein; read-out: hNPY4 IC50
human Y4/PP1 receptor, sequence (P50391 whole entry): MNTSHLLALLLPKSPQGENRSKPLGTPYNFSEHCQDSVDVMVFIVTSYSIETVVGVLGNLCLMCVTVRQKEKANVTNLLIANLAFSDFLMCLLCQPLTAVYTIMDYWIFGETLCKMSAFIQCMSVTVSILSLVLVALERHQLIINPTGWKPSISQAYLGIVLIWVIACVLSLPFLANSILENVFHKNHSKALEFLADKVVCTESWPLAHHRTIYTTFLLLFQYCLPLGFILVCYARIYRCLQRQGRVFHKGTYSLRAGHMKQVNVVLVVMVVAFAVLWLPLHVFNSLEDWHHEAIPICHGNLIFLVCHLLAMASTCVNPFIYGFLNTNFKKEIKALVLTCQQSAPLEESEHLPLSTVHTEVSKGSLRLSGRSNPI
Description: B. Human Y2 and Y4/PP1 Receptor Binding Assays
Binding assays were performed on GF/C Millipore 96-well plates pretreated with 0.02% polyethylenimine. The binding buffer for rat Y2 binding is Krebs-Ringer bicarbonate (pH 7.4) containing 0.01% BSA and 0.005% bacitracin. Samples consist of membrane protein, 25 pM [1251]PYY and drug dilution. Nonspecific binding is defined by 1 μM NPY. The binding buffer for human Y4/PP1 binding consists of 137 mM NaCl, 5.4 mM KCl, 0.44 mM KH2PO4, 1.26 mM CaCl2, 0.81 mM MgSO4, 20 mM HEPES, 1 mM dithiothreitol, 0.1% bacitracin, 100 mg/l streptomycin sulfate, 1 mg/l aprotinin, 10 mg/ml soybean trypsin inhibitor and 0.3% BSA, pH 7.4. Samples consist of membrane protein, 50 pM human [1251]human PP (hPP: NEN DuPont, Boston, Mass.) and drug dilution. 1 μM hPP is used to define nonspecific binding.
After a 2 hour incubation at room temperature with constant mixing, the samples are aspirated on a vacuum manifold, and rinsed with ice-cold binding buffer. The amount of radioactivity in each well is quantitated with either gamma counting or liquid scintillation.

[3] = molecular target: T2, Human NPY1 receptor (Homo sapiens, UniProt P25929); assay: Human NPY1 receptor binding assay ([125I]PYY, SK-N-MC cells); settings: [125I]PYY, SK-N-MC cells; read-out: hNPYI IC50
T2 construct: host or cells: SK-N-MC cells
T2 sequence (P25929 1-384): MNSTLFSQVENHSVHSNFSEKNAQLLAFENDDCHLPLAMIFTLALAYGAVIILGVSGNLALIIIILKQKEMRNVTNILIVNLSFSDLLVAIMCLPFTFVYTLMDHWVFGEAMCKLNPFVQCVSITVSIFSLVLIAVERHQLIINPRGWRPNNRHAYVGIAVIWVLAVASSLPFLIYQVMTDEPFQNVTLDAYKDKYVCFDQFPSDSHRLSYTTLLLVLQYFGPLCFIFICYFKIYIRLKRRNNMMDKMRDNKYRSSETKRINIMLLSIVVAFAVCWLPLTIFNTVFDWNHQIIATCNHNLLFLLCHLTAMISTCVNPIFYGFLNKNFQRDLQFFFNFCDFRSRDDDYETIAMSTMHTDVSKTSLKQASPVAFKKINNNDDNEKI
Description: A. Human NPY1 Receptor Binding Assay
This is a modification of Gordon et al., (J. Neurochem. 55:506-513, 1990). SK-N-MC cell (ATCC, Rockville, Md.) were plated in 24-well plates. Once confluent, cells were rinsed with Dulbecco's phosphate buffered saline (DPBS). Cells were then preincubated in binding buffer containing serum-free DMEM, 25 mM HEPES (pH 7.3), 0.5% bovine serum albumin (BSA), 0.1% bacitracin and 0.1 mM phenylmethylsulfonylfluoride for 30 minutes at room temperature. Drug dilution and [125I]PYY (˜50 pM: NEN-DuPont) were added to the wells, and the cells were incubated for an additional 3 hours at room temperature, followed by rinsing with ice-cold DPBS. Nonspecific binding was defined with 1 μM NPY. After lysing the cells with 1% Triton X-100, the amount of radioactivity in the lysates was quantitated with a gamma counter.

[4] = molecular target: T3, Y2 receptor (Homo sapiens, UniProt P49146); assay: Y2 receptor binding assay ([125I]PYY, membrane protein); settings: [125I]PYY, membrane protein; read-out: hNPY2 IC50
T3 sequence (P49146 1-381): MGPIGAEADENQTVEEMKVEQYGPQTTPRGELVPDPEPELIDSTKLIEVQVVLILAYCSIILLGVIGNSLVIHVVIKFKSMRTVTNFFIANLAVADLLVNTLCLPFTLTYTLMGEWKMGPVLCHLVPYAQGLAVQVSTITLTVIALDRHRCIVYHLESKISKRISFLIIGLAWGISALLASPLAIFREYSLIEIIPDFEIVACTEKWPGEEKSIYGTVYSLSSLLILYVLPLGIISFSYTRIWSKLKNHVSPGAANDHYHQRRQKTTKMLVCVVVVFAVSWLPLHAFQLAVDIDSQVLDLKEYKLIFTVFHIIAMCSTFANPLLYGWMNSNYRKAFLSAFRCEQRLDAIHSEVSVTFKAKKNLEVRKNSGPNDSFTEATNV
Summary of the method: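 Filtration binding with membrane protein and drug dilution, 2 h at room temperature with mixing, radioactivity counted by gamma or scintillation. Y2: 25 pM [125I]PYY in Krebs-Ringer bicarbonate pH 7.4 with 0.01% BSA, nonspecific by 1 μM NPY. Y4/PP1: 50 pM [125I]hPP in HEPES-buffered saline pH 7.4 with protease inhibitors and 0.3% BSA, nonspecific by 1 μM hPP.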

[5] = molecular target: T4, Rat NPY5 receptor (Rattus norvegicus, UniProt Q63634); assay: Rat NPY5 receptor binding assay ([125I]PYY, membrane protein); settings: read-out: rNPY5 IC50
T4 sequence (Q63634 1-445): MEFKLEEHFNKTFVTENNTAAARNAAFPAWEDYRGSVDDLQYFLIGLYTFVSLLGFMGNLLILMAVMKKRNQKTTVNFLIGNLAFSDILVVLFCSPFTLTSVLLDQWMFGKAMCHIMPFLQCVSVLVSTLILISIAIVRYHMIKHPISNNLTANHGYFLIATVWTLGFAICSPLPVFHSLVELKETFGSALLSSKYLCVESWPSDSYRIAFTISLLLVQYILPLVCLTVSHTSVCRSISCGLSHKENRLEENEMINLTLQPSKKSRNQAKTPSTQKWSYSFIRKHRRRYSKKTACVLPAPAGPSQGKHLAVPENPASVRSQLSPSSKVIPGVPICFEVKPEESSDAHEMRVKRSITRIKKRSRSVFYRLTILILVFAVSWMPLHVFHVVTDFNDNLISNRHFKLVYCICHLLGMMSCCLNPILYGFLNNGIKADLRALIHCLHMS
Description: C. Human and Rat NPY5 Receptor Binding Assays
Binding assays are performed on GF/C Millipore 96well plates pretreated with 0.02% polyethylenimine. The binding buffer is 25 mM Tris, 120 mM NaCl, 5 mM KCl, 1.2 mM KH2PO4, 2.5 mM CaCl2, 1.2 mM MgSO4, 0.1% BSA and 0.5 mg/ml bacitracin, pH 7.4. Samples consist of membrane protein, 75-100 pM [125I]PYY (porcine, NEN-DuPont) and drug dilution. Nonspecific binding is defined by 1 μM PYY. After a 2 hour incubation at room temperature with constant mixing, the samples are aspirated on a vacuum manifold, and rinsed with ice-cold binding buffer. The amount of radioactivity in each well is quantitated with either gamma counting or liquid scintillation.

Row | IC50 ([1]; [125I]PYY) | IC50 [2] | IC50 [3] | IC50 [4] | IC50 ([5]; [125I]PYY) | IC50 ([1]; [125I]PYY binding) | IC50 ([5]; [125I]PYY binding) | Compound
1 | 5 nM | > 5000 nM | > 5000 nM | > 5000 nM | 5 nM | – | – | Cl.O=C(CN1CCC(n2c(=O)[nH]c3ccccc32)CC1)Nc1ccc(C(=O)C(=O)c2ccccc2)cc1 [Compound 265, 2-[4-(2-Oxo-2,3-dihydro-benzoimidazol-1-yl]-N-[4-(oxo-phenyl-acetyl)-phenyl]-acetamide; hydrochloride]
2 | 150 nM | > 5000 nM | > 5000 nM | > 5000 nM | 150 nM | – | – | O=C(CN1CCC(n2c(=O)[nH]c3ccccc32)CC1)Nc1ccc(-c2cnco2)cc1 [Compound 267, N-(4-Oxazol-5-yl-phenyl)-2-[4-(2-oxo-2,3-dihydro-benzoimidazol-1-yl)-piperidin-1-yl]-acetamide; hydrate]
3 | 1100 nM | > 5000 nM | – | > 5000 nM | – | – | – | O=C(CNCCCn1c(=O)[nH]c2ccccc21)Nc1ccc(C2CCCCC2)cc1 [Compound 276, N-(4-Cyclohexyl-phenyl)-2-[3-(2-oxo-2,3-dihydro-benzoimidazol-1-yl)-propylamino]-acetamide]
4 | 26 nM | > 5000 nM | > 5000 nM | – | 26 nM | – | – | O=C(CN1CCC(n2c(=O)[nH]c3ccccc32)CC1)Nc1cccc(-c2ccccc2)c1 [Compound 323, N-Biphenyl-3-yl-2-[4-(2-oxo-2,3-dihydro-benzoimidazol-1-yl)-piperidin-1 yl]-acetamide; hydrochloride]
5 | 610 nM | – | > 5000 nM | > 5000 nM | 530 nM | – | – | O=C(CN1CCC(n2c(=O)[nH]c3ccccc32)CC1)NCc1ccc(F)cc1F [Compound 332, N-(2,4-Difluoro-benzyl)-2-[4-2(oxo-2,3-dihydro-benzoimidazol-1-yl)-piperidin-1-yl]-acetamide, reference compound]
6 | – | – | – | – | – | 21 nM | 20 nM | N-{[(4-Cyclohexyl-phenylcarbamoyl)-methyl]-pyrrolidin-3-yl}-2,2,2-trifluoro-acetamide [Compound 197]

Second part, the compound before the results:

Row | Compound | IC50 ([1]; [125I]PYY) | IC50 [2] | IC50 [3] | IC50 [4] | IC50 ([5]; [125I]PYY) | IC50 ([1]; [125I]PYY binding) | IC50 ([5]; [125I]PYY binding)
7 | O=C(CN1CCC(n2c(=O)[nH]c3ccccc32)CC1)NC1CC2CCC1C2 (stereo not drawn) [Compound 326, N-Bicyclo[2.2.1]hept-2-yl-2-[4-(2-oxo-2,3-dihydro-benzoimidazol-1-yl)-piperidin-1-yl] acetamide] | – | > 5000 nM | – | > 5000 nM | – | – | –
8 | COc1ccc(-c2ccccc2)cc1NC(=O)CN1CCC(n2c(=O)[nH]c3ccccc32)CC1 [Compound 328, N-(4-Methoxy-biphenyl-3-yl)-2-[4-(2-oxo-2,3-dihydro-benzoimidazol-1-yl)-piperidin-1-yl]-acetamide; hydrochloride] | – | > 5000 nM | – | > 5000 nM | – | – | –
9 | Nc1ccccc1NC(=O)CN1CCC(n2c(=O)[nH]c3ccccc32)CC1 [Compound 331, N-(2-Amino-phenyl)-2-[4-(2-oxo-2,3-dihydro-benzoimidazol-1-yl)-piperidin-1-yl]-acetamide, reference compound] | – | > 5000 nM | – | > 5000 nM | – | – | –
10 | COC(=O)c1cc(Cl)ccc1NC(=O)CN1CCC(n2c(=O)[nH]c3ccccc32)CC1 [Compound 333, 5-Chloro-2-{2-[4-(2-oxo-2,3-dihydro-benzoimidazol-1-yl)-piperidin 1-yl]-acetylamino}-benzoic acid methyl ester, reference compound] | – | > 5000 nM | – | > 5000 nM | – | – | –
11 | NC(=O)c1cc(N)ccc1NC(=O)CN1CCC(n2c(=O)[nH]c3ccccc32)CC1 [Compound 334, 5-Amino-2-{2-[4-(2-oxo-2,3-dihydro-benzoimidazol-1-yl)piperidin 1-yl]-acetylamino}-benzamide, reference compound] | – | > 5000 nM | – | > 5000 nM | – | – | –
12 | O=C(CN1CCC(n2c(=O)[nH]c3ccccc32)CC1)Nc1ccc(Nc2ccccc2)cc1 [Compound 337, 2-[4-(2-Oxo-2,3-dihydro-benzoimidazol-1-yl)-piperidin-1-yl]-N-(4-phenylamino-phenyl)-acetamide, reference compound] | 96 nM | > 5000 nM | > 5000 nM | – | 108 nM | – | –
13 | O=C(CN1CCC(n2c(=O)[nH]c3ccccc32)CC1)Nc1cccc2ccc(O)cc12 [Compound 340, reference compound] | 227 nM | > 5000 nM | > 5000 nM | > 5000 nM | – | – | –
14 | O=C(CN1CCOCC1)Nc1ccc(C2CCCCC2)cc1 [Compound 362, N-(4-Cyclohexyl-phenyl)-2-morpholin-4-yl-acetamide, reference compound] | 200 nM | > 5000 nM | > 5000 nM | – | 115 nM | – | –

From patent US6410792B1, “Amide derivatives and methods for using the same as selective neuropeptide Y receptor antagonists” (Bayer Corporation, priority 1997, dated 2002)
